Data as given in the NIST ThermoML archive (doi:10.1016/j.jct.2009.10.009).
“And” between values parts separate entries of the source, which are not always exact repeats. Identical values can stand only once.

Details: Crystal, Calculated from knudsen effusion weight loss

CC(C)(C)c1cc(C=O)c(O)c(C(C)(C)C)c1 [3,5-di-tert-butyl-2-hydroxybenzaldehyde]
Details | vapor or sublimation pressure
296.28 K | 0.000151 kPa and 0.000143 kPa and 0.00014 kPa
298.16 K | 0.000193 kPa and 0.00018 kPa and 0.000176 kPa
300.17 K | 0.000248 kPa and 0.000237 kPa and 0.000234 kPa
302.18 K | 0.000304 kPa and 0.0003 kPa and 0.000322 kPa
304.15 K | 0.000408 kPa and 0.000382 kPa and 0.000378 kPa
306.37 K | 0.000542 kPa and 0.000514 kPa and 0.000505 kPa
308.18 K | 0.000673 kPa and 0.000631 kPa and 0.00062 kPa
310.17 K | 0.000861 kPa and 0.000812 kPa and 0.000801 kPa
312.2 K | 0.001099 kPa and 0.001032 kPa and 0.001014 kPa

O=Cc1cccc(O)c1 [3-hydroxybenzaldehyde]
Details | vapor or sublimation pressure
312.17 K | 0.000139 kPa and 0.000134 kPa and 0.000131 kPa
314.2 K | 0.000177 kPa and 0.000171 kPa and 0.000168 kPa
316.2 K | 0.000233 kPa and 0.00022 kPa and 0.000216 kPa
318.19 K | 0.00028 kPa and 0.000275 kPa and 0.000288 kPa
320.18 K | 0.000377 kPa and 0.000358 kPa and 0.000353 kPa
322.2 K | 0.000462 kPa and 0.000453 kPa and 0.00044 kPa
324.17 K | 0.000581 kPa and 0.000557 kPa and 0.000542 kPa
326.22 K | 0.000738 kPa and 0.000712 kPa and 0.000694 kPa
328.18 K | 0.000907 kPa and 0.000871 kPa and 0.000849 kPa
330.19 K | 0.001139 kPa and 0.00109 kPa and 0.001058 kPa

O=Cc1ccc(O)cc1 [4-hydroxybenzaldehyde]
Details | vapor or sublimation pressure
324.2 K | 0.000157 kPa and 0.000151 kPa and 0.000149 kPa
326.16 K | 0.000197 kPa and 0.000193 kPa and 0.000187 kPa
328.31 K | 0.000252 kPa and 0.000244 kPa and 0.000242 kPa
330.18 K | 0.000303 kPa and 0.000296 kPa and 0.000308 kPa
332.16 K | 0.000382 kPa and 0.000375 kPa and 0.00037 kPa
334.18 K | 0.000477 kPa and 0.000472 kPa and 0.000463 kPa
336.22 K | 0.000603 kPa and 0.000602 kPa and 0.000583 kPa
338.34 K | 0.000756 kPa and 0.000738 kPa and 0.000728 kPa
340.17 K | 0.000926 kPa and 0.000905 kPa and 0.000886 kPa
341.3 K | 0.001019 kPa and 0.001005 kPa and 0.000984 kPa
